Measurements: US8613927B2, “High affinity human antibodies to human nerve growth factor” (Regeneron Pharmaceuticals, Inc., priority 2007, dated 2013)

What was measured:
[1] = target: T1, human NT-3 binding to human p75-hFc (Homo sapiens, UniProt P20783); assay: BIACORE, NT-3 binding to p75-hFc surface in presence of antibody; conditions: 20 nM NT-3 + 500 nM sample; normalized to IgG1 control
T1 sequence (P20783 139-257): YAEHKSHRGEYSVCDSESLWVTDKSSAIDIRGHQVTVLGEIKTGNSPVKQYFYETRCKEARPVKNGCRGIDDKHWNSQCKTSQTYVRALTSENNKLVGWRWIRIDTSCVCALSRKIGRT
Experimental: (§1) Human TrkA-hFc (9300 RU), human TrkB-hFc (6000 RU), human TrkC-hFc (9100 RU) and human p75-hFc (7500 RU) were covalently coupled to BIACORE® CM5 chip surfaces by amine-coupling procedure. […] The binding mixture was first incubated at room temperature to reach equilibrium (about 1 hr) and then was injected over the above TrkA-hFc, TrkB-hFc, TrkC-hFc and p75-hFc surfaces. The level of human NT-3 binding in each sample was measured. The binding RU from each sample mixture was normalized according to the RU value from the negative control sample (i.e., 20 nM human NT-3 with 500 nM AVASTIN®) and presented as % binding to Trk surfaces (Table 9).

[2] = target: T2, human NT-3 binding to human TrkB-hFc (Homo sapiens, UniProt P20783); assay: BIACORE, NT-3 binding to TrkB-hFc surface in presence of antibody; conditions: 20 nM NT-3 + 500 nM sample; normalized to IgG1 control
T2 sequence (P20783 139-257): T1 sequence (P20783 139-257)
Experimental: as §1

[3] = target: T3, human NT-3 binding to human TrkA-hFc (Homo sapiens, UniProt P20783); assay: BIACORE, NT-3 binding to TrkA-hFc surface in presence of antibody; conditions: 20 nM NT-3 + 500 nM sample; normalized to IgG1 control
T3 sequence (P20783 139-257): T1 sequence (P20783 139-257)
Experimental: as §1

[4] = target: T4, human NT-3 binding to human TrkC-hFc (Homo sapiens, UniProt P20783); assay: BIACORE, NT-3 binding to TrkC-hFc surface in presence of antibody; conditions: 20 nM NT-3 + 500 nM sample; normalized to IgG1 control
T4 sequence (P20783 139-257): T1 sequence (P20783 139-257)
Experimental: as §1

C57BL/6 mice = assay: Post-operative incision pain model, mechanical allodynia in von Frey test; assay type: in vivo, mouse; conditions: Table 17
Experimental: Thermal hyperalgesia was studied in the Hargreaves' test and mechanical allodynia was tested in the von Frey test. In this latter test, mice were tested after being acclimated for 2-3 hours for 4 days in an apparatus with a wire mesh floor. The test was performed by applying, in ascending order, a series of von Frey hairs through the wire mesh onto the plantar surface of the hind paw with the incision. A response was considered positive if the paw was raised from the platform in response to application of the filament. Starting from the thinnest hair, each von Frey filament was applied up to five times until a response was observed.

C57BL/6 male mice = assay: Seltzer model of neuropathic pain, Hargreaves' test; assay type: in vivo, mouse
From the text: Neuropathic pain. The mouse Seltzer model of neuropathic pain (Malmberg et al. (1998) Pain 76:215-222) was used with C57BL/6 male mice, in which a partial nerve injury was produced by tying a tight ligature with a 7-0 silk suture around approximately ⅓ to ½ the diameter of the sciatic nerve of one single thigh per mouse. Post-surgery, the mice were allowed to recover for at least two days and then they were studied for several weeks post-surgery for thermal hyperalgesia in the Hargreaves' test. Controls were sham-operated mice in which the sciatic nerve was exposed and elevated but not tied. Following surgery, the mice were tested at day […] and at day 7 post-surgery to confirm that the thermal hyperalgesia had developed.
Following the Seltzer surgery, mice were tested at days 5 and 7 post-surgery to confirm that the thermal hyperalgesia had developed.

IgG1 Control: negative binding control, IgG1 control (AVASTIN®; Genentech, CA)
% binding to p75-hFc surface [1]: 100% | % binding to TrkB-hFc surface [2]: 100% | % binding to TrkA-hFc surface [3]: 100% | % binding to TrkC-hFc surface [4]: 100% | Paw Withdrawal Threshold (C57BL/6 mice; 25 mg/kg i.p. on day 1 post-surgery, Baseline): 1.314 ± 0.137 g | Paw Withdrawal Threshold (C57BL/6 mice; 25 mg/kg i.p., 5 hr after treatment): 0.011 ± 0.002 g | Paw Withdrawal Threshold (C57BL/6 mice; 25 mg/kg i.p., 22 hr after treatment): 0.029 ± 0.004 g | Paw Withdrawal Threshold (C57BL/6 mice; 25 mg/kg i.p., 45 hr after treatment): 0.190 ± 0.135 g | Paw Withdrawal Threshold (C57BL/6 mice; 25 mg/kg i.p., 70 hr after treatment): 0.194 ± 0.034 g | Paw Withdrawal Threshold (C57BL/6 mice; 25 mg/kg i.p., Day 1 (post-surgery, before injection)): 0.011 ± 0.002 g | pain relief (C57BL/6 male mice; 50 mg/kg s.c. or i.p. at day 7 post-surgery, p<0.001-0.05): no effect | mean percent change from Hargreaves baseline (C57BL/6 male mice; Table 23, Seltzer, 100 mg/kg s.c. at day 7, day 0 after surgery): 0.0 ± 0.0% | mean percent change from Hargreaves baseline (C57BL/6 male mice; Table 23, Seltzer, 100 mg/kg s.c. at day 7, day 4): −46.9 ± 6.5% | mean percent change from Hargreaves baseline (C57BL/6 male mice; Table 23, Seltzer, 100 mg/kg s.c. at day 7, day 7): −55.3 ± 6.4% | mean percent change from Hargreaves baseline (C57BL/6 male mice; Table 23, Seltzer, 100 mg/kg s.c. at day 7, day 8): −55.6 ± 4.3% | mean percent change from Hargreaves baseline (C57BL/6 male mice; Table 23, Seltzer, 100 mg/kg s.c. at day 7, day 11): −57.3 ± 5.1% | mean percent change from Hargreaves baseline (C57BL/6 male mice; Table 23, Seltzer, 100 mg/kg s.c. at day 7, day 13): −59.7 ± 6.5% | mean percent change from Hargreaves baseline (C57BL/6 male mice; Table 23, Seltzer, 100 mg/kg s.c. at day 7, day 16): −51.2 ± 4.0% | mean percent change from Hargreaves baseline (C57BL/6 male mice; Table 23, Seltzer, 100 mg/kg s.c. at day 7, day 18): −57.7 ± 4.6% | mean percent change from Hargreaves baseline (C57BL/6 male mice; Table 23, Seltzer, 100 mg/kg s.c. at day 7, day 20): −53.2 ± 4.9% | mean percent change from Hargreaves baseline (C57BL/6 male mice; Table 23, Seltzer, 100 mg/kg s.c. at day 7, day 24): −54.9 ± 4.1% | mean percent change from Hargreaves baseline (C57BL/6 male mice; Table 23, Seltzer, 100 mg/kg s.c. at day 7, day 28): −51.81 ± 4.1% | mean percent change from Hargreaves baseline (C57BL/6 male mice; Table 23, Seltzer, 100 mg/kg s.c. at day 7, day 31): −49.7 ± 2.5% | mean percent change from Hargreaves baseline (C57BL/6 male mice; Table 23, Sham-operated, 100 mg/kg s.c. at day 7, day 0 after surgery): 0.0 ± 0.0% | mean percent change from Hargreaves baseline (C57BL/6 male mice; Table 23, Sham, 100 mg/kg s.c. at day 7, day 4): −7.2 ± 3.7% | mean percent change from Hargreaves baseline (C57BL/6 male mice; Table 23, Sham, 100 mg/kg s.c. at day 7, day 7): 8.7 ± 13.2% | mean percent change from Hargreaves baseline (C57BL/6 male mice; Table 23, Sham, 100 mg/kg s.c. at day 7, day 8): −9.4 ± 4.1% | mean percent change from Hargreaves baseline (C57BL/6 male mice; Table 23, Sham, 100 mg/kg s.c. at day 7, day 11): 14.7 ± 11.4% | mean percent change from Hargreaves baseline (C57BL/6 male mice; Table 23, Sham, 100 mg/kg s.c. at day 7, day 13): −6.9 ± 3.3% | mean percent change from Hargreaves baseline (C57BL/6 male mice; Table 23, Sham, 100 mg/kg s.c. at day 7, day 16): 2.3 ± 3.0% | mean percent change from Hargreaves baseline (C57BL/6 male mice; Table 23, Sham, 100 mg/kg s.c. at day 7, day 18): 0.2 ± 2.8% | mean percent change from Hargreaves baseline (C57BL/6 male mice; Table 23, Sham, 100 mg/kg s.c. at day 7, day 20): 3.6 ± 2.4% | mean percent change from Hargreaves baseline (C57BL/6 male mice; Table 23, Sham, 100 mg/kg s.c. at day 7, day 24): 1.5 ± 2.9% | mean percent change from Hargreaves baseline (C57BL/6 male mice; Table 23, Sham, 100 mg/kg s.c. at day 7, day 28): 0.7 ± 2.5% | mean percent change from Hargreaves baseline (C57BL/6 male mice; Table 23, Sham, 100 mg/kg s.c. at day 7, day 31): 1.1 ± 2.3% | mean percent change from Hargreaves baseline (C57BL/6 male mice; Table 24, 100 mg/kg s.c. injected Day 7 post-surgery, Baseline): 0.0 ± 0.0% | mean percent change from Hargreaves baseline (C57BL/6 male mice; Table 24, 100 mg/kg s.c. injected Day 14 post-surgery, Baseline): 0.0 ± 0.0% | mean percent change from Hargreaves baseline (C57BL/6 male mice; Table 24, 100 mg/kg s.c. injected Day 21 post-surgery, Baseline): 0.0 ± 0.0% | mean percent change from Hargreaves baseline (C57BL/6 male mice; Table 24, injected Day 7, Day 5 after surgery): −53.5 ± 5.9% | mean percent change from Hargreaves baseline (C57BL/6 male mice; Table 24, injected Day 7, Day 8): −56.7 ± 3.8% | mean percent change from Hargreaves baseline (C57BL/6 male mice; Table 24, injected Day 7, Day 10): −64.3 ± 2.6% | mean percent change from Hargreaves baseline (C57BL/6 male mice; Table 24, injected Day 7, Day 14): −66.9 ± 5.1% | mean percent change from Hargreaves baseline (C57BL/6 male mice; Table 24, injected Day 7, Day 15): −60.6 ± 4.0% | mean percent change from Hargreaves baseline (C57BL/6 male mice; Table 24, injected Day 7, Day 17): −58.9 ± 3.5% | mean percent change from Hargreaves baseline (C57BL/6 male mice; Table 24, injected Day 7, Day 21): −54.1 ± 9.6% | mean percent change from Hargreaves baseline (C57BL/6 male mice; Table 24, injected Day 7, Day 22): −56.3 ± 4.9% | mean percent change from Hargreaves baseline (C57BL/6 male mice; Table 24, injected Day 7, Day 24): −55.6 ± 5.1%
